Assay results published in patent publication US20230085307A1, “PYRIDAZINONE COMPOUND AND HERBICIDE” (NISSAN CHEMICAL CORPORATION, priority 2019, published 2023).

What was measured:
Japanese bulrush [1] = assay: Test Example 1: herbicidal activity, application before weed generation under submerged conditions (Table 16, symbol B); assay type: in vivo, Japanese bulrush (Schoenoplectus juncoides); details: 320 g/ha applied herbicide
Summary of the method: (§1)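 Emulsion formulation, water-diluted to set dose, was put onto the flooded surface (4 cm depth, alluvial soil) the same day weeds were sown and 2.5-leaf rice transplanted. After 3 weeks at 25-30 °C under glass, each species was rated 0 (≤5% kill) to 5 (≥90% kill).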

oval-leafed pondweed [2] = assay: Test Example 1: herbicidal activity, application before weed generation under submerged conditions (Table 16, symbol C); assay type: in vivo, oval-leafed pondweed (Monochoria vaginalis); details: 320 g/ha applied herbicide
Summary of the method: as §1

Japanese bulrush [3] = assay: Test Example 2: herbicidal activity, application during weed generation under submerged conditions (Table 17, symbol B); assay type: in vivo, Japanese bulrush (Schoenoplectus juncoides); details: AAH 320 g/ha; application during weed generation, submerged conditions
Summary of the method: (§2)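 Mixed weed seedlings in alluvial soil under a 4 cm water layer, greenhouse-grown at 25–30° C. Compound given as a diluted emulsion into the floodwater at the 1–2 leaf stage; response graded after three weeks.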

oval-leafed pondweed [4] = assay: Test Example 2: herbicidal activity, application during weed generation under submerged conditions (Table 17, symbol C); assay type: in vivo, oval-leafed pondweed (Monochoria vaginalis); details: AAH 320 g/ha; application during weed generation, submerged conditions
Summary of the method: as §2

rice flat sedge = assay: Test Example 3: herbicidal effect by foliage application, Wagner pot (Table 18, symbol E); assay type: in vivo, rice flat sedge (Cyperus iria); details: for herbicidal effect on E (rice flat sedge), rating 0-5: 320 g/ha
Summary of the method: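 Plants were sown in alluvial soil held under 0.1–0.5 cm standing water and grown 14 days in a greenhouse at 25–30 °C. An emulsifiable formulation, water-diluted to the set dose, was then sprayed onto the foliage, and effects were scored three weeks later using previously defined criteria.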

green foxtail [5] = assay: Test Example 4: herbicidal effect by soil treatment (Table 19, symbol G); assay type: in vivo, green foxtail (Setaria viridis)
Summary of the method: (§3)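 Scoring uses the grading scale of an earlier test, three weeks post-application. Treatment consists of spraying a diluted emulsion formulation across the surface of sterilized diluvial soil in which seeds are buried near 1.5 cm deep; boxes are kept in a greenhouse between 25° C. and 30° C.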

wild oat = assay: Test Example 4: herbicidal effect by soil treatment (Table 19, symbol I); assay type: in vivo, wild oat (Avena fatua)
Summary of the method: as §3

Italian ryegrass = assay: Test Example 4: herbicidal effect by soil treatment (Table 19, symbol K); assay type: in vivo, Italian ryegrass (Lolium multiflorum)
Summary of the method: as §3

windgrass [6] = assay: Test Example 4: herbicidal effect by soil treatment (Table 19, symbol L); assay type: in vivo, windgrass (Apera spica-venti)
Summary of the method: as §3

velvetleaf = assay: Test Example 4: herbicidal effect by soil treatment (Table 19, symbol M); assay type: in vivo, velvetleaf (Abutilon theophrasti)
Summary of the method: as §3

persian speedwell = assay: Test Example 4: herbicidal effect by soil treatment (Table 19, symbol R); assay type: in vivo, Persian speedwell (Veronica persica)
Summary of the method: as §3

southern crabgrass = assay: Test Example 5: herbicidal effect by foliage application, plastic box (Table 20, symbol F); assay type: in vivo, southern crabgrass (Digitaria ciliaris); details: foliage application
Summary of the method: (§4)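 Post-emergence foliar test in sterilized diluvial soil. Compound applied as water-diluted emulsion at a predetermined rate to 14-day-old plants; evaluation at three weeks.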

green foxtail [7] = assay: Test Example 5: herbicidal effect by foliage application, plastic box (Table 20, symbol G); assay type: in vivo, green foxtail (Setaria viridis); details: foliage application
Summary of the method: as §4

windgrass [8] = assay: Test Example 5: herbicidal effect by foliage application, plastic box (Table 20, symbol L); assay type: in vivo, windgrass (Apera spica-venti); details: foliage application
Summary of the method: as §4

lambsquarters = assay: Test Example 5: herbicidal effect by foliage application, plastic box (Table 20, symbol O); assay type: in vivo, lambsquarters (Chenopodium album); details: foliage application
Summary of the method: as §4

chickweed = assay: Test Example 5: herbicidal effect by foliage application, plastic box (Table 20, symbol P); assay type: in vivo, common chickweed (Stellaria media); details: foliage application
Summary of the method: as §4

[9] = amount of applied herbicide 320 g/ha
[10] = 320 g/ha, three weeks after application
[11] = AAH 320 g/ha, three weeks after application
[12] = 320 g/ha, 3 weeks after application
[13] = 320 g/ha, evaluated three weeks after application

| SMILES | Herbicidal effect on B: Japanese bulrush (grade 0-5) (Japanese bulrush [1]) | Herbicidal effect on C: oval-leafed pondweed (grade 0-5) (oval-leafed pondweed [2]) | herbicidal effect rating, B: Japanese bulrush (Japanese bulrush [3]) | herbicidal effect rating, C: oval-leafed pondweed (oval-leafed pondweed [4]) | herbicidal effect on E (rice flat sedge), rating 0-5 (rice flat sedge) | herbicidal effect rating, G: green foxtail (green foxtail [5]; [9]) | herbicidal effect rating, I: wild oat (wild oat; [9]) | herbicidal effect rating, K: Italian ryegrass (Italian ryegrass; [9]) | herbicidal effect rating, L: windgrass (windgrass [6]; [9]) | herbicidal effect rating, M: velvetleaf (velvetleaf; [9]) | herbicidal effect rating, R: persian speedwell (persian speedwell; [9]) | herbicidal effect grade, F: southern crabgrass (southern crabgrass; [10]) | herbicidal effect grade, G: green foxtail (green foxtail [7]; [10]) | herbicidal effect grade, L: windgrass (windgrass [8]; [10]) | herbicidal effect grade, O: lambsquarters (lambsquarters; [10]) | herbicidal effect grade, P: chickweed (chickweed; [10]) | further results |
| --- | --- | --- | --- | --- | --- | --- | --- | --- | --- | --- | --- | --- | --- | --- | --- | --- | --- |
| CCCC(=O)Oc1c(C)nn(C)c(=O)c1-c1c(-c2ccc(OCC)cc2)sc2ccccc12 [1-014] | 5 (Herbicidal rate of 90% or more (almost completely withered)) | 5 (Herbicidal rate of 90% or more (almost completely withered)) | 3 (Herbicidal rate of 40% or more and less than 70%) | 3 (Herbicidal rate of 40% or more and less than 70%) | 5 (Herbicidal rate of 90% or more (almost completely withered)) | 1 (Herbicidal rate of 5% or more and less than 20%) | 0 (Herbicidal rate of 5% or less (almost no effect)) | 0 (Herbicidal rate of 5% or less (almost no effect)) | 0 (Herbicidal rate of 5% or less (almost no effect)) | 0 (Herbicidal rate of 5% or less (almost no effect)) | 5 (Herbicidal rate of 90% or more (almost completely withered)) | 0 (Herbicidal rate of 5% or less (almost no effect)) | 4 (Herbicidal rate of 70% or more and less than 90%) | 0 (Herbicidal rate of 5% or less (almost no effect)) | 2 (Herbicidal rate of 20% or more and less than 40%) | 5 (Herbicidal rate of 90% or more (almost completely withered)) |  |
| CCCOc1ccccc1-c1sc2ccccc2c1-c1c(O)c(C)nn(C)c1=O [1-015] | 3 (Herbicidal rate of 40% or more and less than 70%) | 3 (Herbicidal rate of 40% or more and less than 70%) | 1 (Herbicidal rate of 5% or more and less than 20%) | 2 (Herbicidal rate of 20% or more and less than 40%) | 5 (Herbicidal rate of 90% or more (almost completely withered)) | 4 (Herbicidal rate of 70% or more and less than 90%) | 0 (Herbicidal rate of 5% or less (almost no effect)) | 0 (Herbicidal rate of 5% or less (almost no effect)) | 5 (Herbicidal rate of 90% or more (almost completely withered)) | 0 (Herbicidal rate of 5% or less (almost no effect)) | 4 (Herbicidal rate of 70% or more and less than 90%) | 3 (Herbicidal rate of 40% or more and less than 70%) | 4 (Herbicidal rate of 70% or more and less than 90%) | 5 (Herbicidal rate of 90% or more (almost completely withered)) | 0 (Herbicidal rate of 5% or less (almost no effect)) | 5 (Herbicidal rate of 90% or more (almost completely withered)) |  |
| Cc1nn(C)c(=O)c(-c2c(-c3cnc4ccccc4c3)sc3ccccc23)c1O [1-108] | 2 (Herbicidal rate of 20% or more and less than 40%) | 0 (Herbicidal rate of 5% or less (almost no effect)) | 2 (Herbicidal rate of 20% or more and less than 40%) | 0 (Herbicidal rate of 5% or less (almost no effect)) | 5 (Herbicidal rate of 90% or more (almost completely withered)) | 0 (Herbicidal rate of 5% or less (almost no effect)) | 0 (Herbicidal rate of 5% or less (almost no effect)) | 0 (Herbicidal rate of 5% or less (almost no effect)) | 0 (Herbicidal rate of 5% or less (almost no effect)) |  | 0 (Herbicidal rate of 5% or less (almost no effect)) |  |  |  |  |  | F: southern crabgrass, herbicidal effect (southern crabgrass; [11]): 0 (Herbicidal rate of 5% or less (almost no effect)); G: green foxtail, herbicidal effect (green foxtail [7]; [11]): 0 (Herbicidal rate of 5% or less (almost no effect)); L: windgrass, herbicidal effect (windgrass [8]; [11]): 0 (Herbicidal rate of 5% or less (almost no effect)); O: lambsquarters, herbicidal effect (lambsquarters; [11]): 2 (Herbicidal rate of 20% or more and less than 40%); P: chickweed, herbicidal effect (chickweed; [11]): 2 (Herbicidal rate of 20% or more and less than 40%) |
| Cc1nn(C)c(=O)c(-c2c(-c3ccc(OCCF)cc3)sc3ccc(F)cc23)c1O [2-047] | 3 (Herbicidal rate of 40% or more and less than 70%) | 2 (Herbicidal rate of 20% or more and less than 40%) | 3 (Herbicidal rate of 40% or more and less than 70%) | 2 (Herbicidal rate of 20% or more and less than 40%) | 5 (Herbicidal rate of 90% or more (almost completely withered)) |  |  |  |  |  |  |  |  |  |  |  | herbicidal effect rating, G: green foxtail (green foxtail [5]; 320 g/ha): 5 (Herbicidal rate of 90% or more (almost completely withered)); herbicidal effect rating, I: wild oat (wild oat; 320 g/ha): 2 (Herbicidal rate of 20% or more and less than 40%); herbicidal effect rating, K: Italian ryegrass (Italian ryegrass; 320 g/ha): 1 (Herbicidal rate of 5% or more and less than 20%); herbicidal effect rating, L: windgrass (windgrass [6]; 320 g/ha): 0 (Herbicidal rate of 5% or less (almost no effect)); herbicidal effect rating, M: velvetleaf (velvetleaf; 320 g/ha): 5 (Herbicidal rate of 90% or more (almost completely withered)); herbicidal effect rating, R: persian speedwell (persian speedwell; 320 g/ha): 5 (Herbicidal rate of 90% or more (almost completely withered)); effect on southern crabgrass (F) (southern crabgrass; [12]): 5 (Herbicidal rate of 90% or more (almost completely withered)); effect on green foxtail (G) (green foxtail [7]; [12]): 5 (Herbicidal rate of 90% or more (almost completely withered)); effect on windgrass (L) (windgrass [8]; [12]): 4 (Herbicidal rate of 70% or more and less than 90%); effect on lambsquarters (O) (lambsquarters; [12]): 4 (Herbicidal rate of 70% or more and less than 90%) |
| CCCC(=O)Oc1c(C)nn(C)c(=O)c1-c1c(-c2ccc(SCC)cc2)sc2ccc(F)cc12 [2-245] | 3 (Herbicidal rate of 40% or more and less than 70%) | 3 (Herbicidal rate of 40% or more and less than 70%) | 3 (Herbicidal rate of 40% or more and less than 70%) | 4 (Herbicidal rate of 70% or more and less than 90%) |  |  |  |  |  |  |  |  |  |  |  |  | herbicidal effect on E: rice flat sedge (rice flat sedge; [9]): 4 (Herbicidal rate of 70% or more and less than 90%); herbicidal effect on G: green foxtail (green foxtail [5]; [9]): 5 (Herbicidal rate of 90% or more (almost completely withered)); herbicidal effect on I: wild oat (wild oat; [9]): 2 (Herbicidal rate of 20% or more and less than 40%); herbicidal effect on K: Italian ryegrass (Italian ryegrass; [9]): 4 (Herbicidal rate of 70% or more and less than 90%); herbicidal effect on L: windgrass (windgrass [6]; [9]): 3 (Herbicidal rate of 40% or more and less than 70%); herbicidal effect on M: velvetleaf (velvetleaf; [9]): 2 (Herbicidal rate of 20% or more and less than 40%); herbicidal effect on R: persian speedwell (persian speedwell; [9]): 5 (Herbicidal rate of 90% or more (almost completely withered)); herbicidal effect on F: southern crabgrass (criteria 0-5) (southern crabgrass; [13]): 5 (Herbicidal rate of 90% or more (almost completely withered)); herbicidal effect on G: green foxtail (criteria 0-5) (green foxtail [7]; [13]): 5 (Herbicidal rate of 90% or more (almost completely withered)); herbicidal effect on O: lambsquarters (criteria 0-5) (lambsquarters; [13]): 5 (Herbicidal rate of 90% or more (almost completely withered)); herbicidal effect on P: chickweed (criteria 0-5) (chickweed; [13]): 5 (Herbicidal rate of 90% or more (almost completely withered)) |
